# Measured values published in US10717946B2, “Water soluble essential oils and their use” (KIMBERLY-CLARK WORLDWIDE, INC., priority 2012, dated 2020).
# Where two headings read alike, the source gives them in different places.
# Tested on: C. albicans SC5314
# Type: cell-based, Candida albicans
# Procedure: Based on the results in FIG. 3, single cell suspensions of SC5314 was prepared as follows. Stock culture of C. albicans SC5314 was streaked onto YPD agar (YPDA) and incubated at 30° C. overnight. Single colonies were subcultured in YPD broth (YPDB) and incubated at 30° C., 200 rpm overnight. Overnight culture in YPDB was subcultured in YPD broth again and incubated at 30° C., 200 rpm 48 h. Cells were collected by centrifugation (4000 g 10 min) at 4° C., washed three times with sterile water, and then resuspended in sterile water at a final concentration of 10^9 colony-forming unit/ml (cfu/ml). The suspension was stored at 4° C. at least 1 d, then subcultured into YPDB to a final concentration of 10^6 cfu/ml. After 48 h incubation, cell suspension was examined under the microscope for single cell percentage. When the single cell percentage exceeded 80%, cells were collected and washed three times with water, then resuspended in water to a final concentration of 10^9 cfu/ml, and stored at 4° C. for no more than a month.
# Two approaches were taken to determine the percentage of cells with germ tubes formed (GTF %). One way was to count the total cells at the start of incubation, and count the ungerminated cells after incubation, then calculate the GTF % as (1−ungerminated cells/total cells at 0 h)*100. Another way was to store the samples at 15° C. for 20 h after incubation, then count the germinated cells and total cells after disaggregation, then calculated the GTF % as (germinated cells/total cells after storage)*100. […] Therefore, for practical purposes, the GTF % was determined by the first method, that is, GTF %=(1−ungerminated cells/total cells at 0 h)*100, for the in vitro screening discussed herein.
# A screening medium, containing 11 mM imidazole buffer, 3 m MMgSO4, and 2.6 mM N-acetyl-D-glucosamine (GlcNAc) has been used to study the effect of farnesol analogs on the germ tube formation of C. albicans. Here, the germ tube formation of C. albicans in modified screening media was assessed with various concentrations of imidazole buffer (10 mM, 30 mM, and 50 mM) and MgSO4 (0.5 mM, 1.5 mM, and 3 mM). […] It took 2 h to 3 h for the GTF % to reach above 80%. For practical purposes, the screening medium, containing 11 mM imidazole buffer, 0.5 m MMgSO4, and 2.6 mM N-acetyl-D-glucosamine (GlcNAc) was adopted for in vitro screening the quorum sensing inhibitory effect of farnesol compounds and botanicals. […]
smiles,measurement,setting,value
C=CCCCCCCCC [1-Decene],"GTF %control-GTF %sample (mean ± SD, n = 3)",0.1%,0%
same,"GTF %control-GTF %sample (mean ± SD, n = 3)",0.2%,35.2 ± 5.2 %
Cc1ccc(C(C)C)c(O)c1 [Thymol],"GTF % (mean ± SEM, n = 3)",1 mM,43.7 ± 5.2%
CC(C)=CCCC(C)=CCCC(C)=CCO [farnesol],"GTF %control-GTF %sample (mean ± SD, n = 3)",(0.0022%),25.0 ± 4.1%
